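Briefly, cells in 96-well plates were exposed to five compound concentrations for 48 h, and endpoints were estimated by linear interpolation. GI50 = concentration required for 50% inhibition of growth. Definition used: TGI = concentration required for complete inhibition of growth.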 A value given as a limit tells only on which side of the number the result lay.

Among the test systems are A498 renal; DU-145 prostate; MDA-MB-435; MOLT-4 leukemia; NCI-H23 lung; OVCAR-4 ovarian; SK-MEL-2 melanoma; SK-MEL-5 melanoma; SK-OV-3 ovarian; UO-31 renal.
What all share (test): growth of human tumour cells (NCI), 48 h

Turning to `CCC[CH2][Sn]([CH2]CCC)([CH2]CCC)[O]C(=O)c1ccc(Cl)cc1Cl`, the GI50 in the test with A498 renal is 110 nM; with DU-145 prostate, 128 nM; in the test with MDA-MB-435, 160 nM; in the test with MOLT-4 leukemia, 215 nM; in the test with NCI-H23 lung, 130 nM; in the test on OVCAR-4 ovarian, 95.8 nM. In addition, the GI50 with SK-MEL-2 melanoma was 149 nM; in the test on SK-MEL-5 melanoma, 143 nM; in the test with SK-OV-3 ovarian it was 142 nM; in the test with UO-31 renal it was 146 nM. For the same compound, the TGI came to 236 nM with A498 renal; 257 nM with DU-145 prostate; 335 nM with MDA-MB-435; 1710 nM in the test with MOLT-4 leukemia; 296 nM in the test on NCI-H23 lung; 226 nM in the test on OVCAR-4 ovarian. The TGI in the test on SK-MEL-2 melanoma was 333 nM; with SK-MEL-5 melanoma it was 276 nM; in the test on SK-OV-3 ovarian, 279 nM; with UO-31 renal it was 304 nM.
With `CN(C)CC1C(=O)O[C@H]2[C@H]1CC/C(COC(=O)c1cc3ccccc3[nH]1)=C\CC[C@@]1(C)O[C@@H]21` (some centres undefined), the GI50 in the test on A498 renal is 11100 nM; in the test on DU-145 prostate, 2010 nM; with MDA-MB-435, 1490 nM; in the test on MOLT-4 leukemia, 1980 nM; in the test with NCI-H23 lung, 2390 nM; with OVCAR-4 ovarian, 1570 nM. For the same compound, the GI50 in the test on SK-MEL-2 melanoma was 1980 nM; in the test on SK-MEL-5 melanoma, 1840 nM; in the test on SK-OV-3 ovarian, 19900 nM; in the test on UO-31 renal it was 872 nM. Further, the TGI was found to be 23900 nM with A498 renal; 6170 nM in the test with DU-145 prostate; 3200 nM in the test on MDA-MB-435; 7320 nM in the test on MOLT-4 leukemia; 8300 nM with NCI-H23 lung; 3680 nM in the test on OVCAR-4 ovarian. Also, the TGI with SK-MEL-2 melanoma came out at 5510 nM; in the test with SK-MEL-5 melanoma, 3570 nM; with SK-OV-3 ovarian, 39300 nM; in the test on UO-31 renal, 2360 nM.
For the compound `COc1ccc(C(=O)/C=C/c2ccc3c(c2)OCO3)c(OCc2ccccc2)c1`, the TGI in the test with A498 renal was more than 100000 nM; in the test on DU-145 prostate it was more than 100000 nM; with MDA-MB-435 it was more than 100000 nM; with MOLT-4 leukemia, more than 26400 nM; with NCI-H23 lung, more than 100000 nM; in the test with OVCAR-4 ovarian it was more than 61000 nM. For the same compound, the TGI in the test with SK-MEL-2 melanoma, in the test with SK-MEL-5 melanoma, with SK-OV-3 ovarian and with UO-31 renal was more than 100000 nM throughout.
For the compound `COc1cc(/C=C/C(=O)c2c(C)nc3ccccc3c2/C=C/c2ccc(C)cc2)cc(OC)c1OC`, the GI50 with A498 renal was 2000 nM; in the test on DU-145 prostate, 1860 nM; in the test with MDA-MB-435, 1990 nM; with MOLT-4 leukemia, 2560 nM; in the test with NCI-H23 lung it was 1720 nM; in the test with OVCAR-4 ovarian, 5620 nM. Besides, the GI50 was 2110 nM with SK-MEL-2 melanoma, 1750 nM in the test on SK-MEL-5 melanoma, 11000 nM with SK-OV-3 ovarian and 1370 nM with UO-31 renal. Further, the TGI in the test with A498 renal was 4870 nM; with DU-145 prostate it was 3660 nM; with MDA-MB-435, 4550 nM; in the test on MOLT-4 leukemia it was more than 100000 nM; in the test on NCI-H23 lung, 3800 nM; in the test on OVCAR-4 ovarian it was 52900 nM. The TGI is 5050 nM with SK-MEL-2 melanoma, 3240 nM in the test with SK-MEL-5 melanoma, more than 100000 nM in the test with SK-OV-3 ovarian and 2670 nM with UO-31 renal.
Regarding `O=C(O)C1C(C(=O)O)C23CC2(C(=O)O)C2(C(=O)O)CCC3=C3CCCC312` (centres undefined), the TGI came to 62600 nM in the test with A498 renal; 34100 nM in the test with DU-145 prostate; 49800 nM in the test with MDA-MB-435; 30200 nM in the test on MOLT-4 leukemia; 36400 nM in the test on NCI-H23 lung; 80600 nM in the test on OVCAR-4 ovarian. In addition, the TGI with SK-MEL-2 melanoma was 38800 nM; with SK-MEL-5 melanoma it was 18200 nM; with SK-OV-3 ovarian it was 36600 nM; with UO-31 renal it was 33200 nM.
Take `CN(C)CCCN1c2ccccc2C(C)(C)c2ccccc21`: the TGI in the test with A498 renal was determined as 23000 nM; in the test on DU-145 prostate, 31200 nM; in the test with MDA-MB-435, 27400 nM; with MOLT-4 leukemia, 26600 nM; in the test with NCI-H23 lung it was 30400 nM; in the test on OVCAR-4 ovarian, 28200 nM. Also, the TGI stood at 30100 nM with SK-MEL-2 melanoma, 26200 nM in the test on SK-MEL-5 melanoma, 29100 nM in the test with SK-OV-3 ovarian and 27400 nM in the test with UO-31 renal.
In the case of `COc1cc2c(cc1OCCCCCOc1ccc(-n3c(C)nc4ccccc4c3=O)cc1)N=C[C@@H]1CCCN1C2=O`, the GI50 with A498 renal was 214 nM; in the test on DU-145 prostate it was 410 nM; in the test on MDA-MB-435 it was 184 nM; in the test with MOLT-4 leukemia, 196 nM; in the test with NCI-H23 lung it was 226 nM; with OVCAR-4 ovarian, 515 nM. Moreover, the GI50 in the test with SK-MEL-2 melanoma is 377 nM; in the test with SK-MEL-5 melanoma, 176 nM; in the test on SK-OV-3 ovarian, 410 nM; in the test with UO-31 renal it was 336 nM. The TGI with A498 renal worked out at 543 nM; with DU-145 prostate, 3740 nM; with MDA-MB-435, 390 nM; with MOLT-4 leukemia, 500 nM; with NCI-H23 lung it was 528 nM; in the test on OVCAR-4 ovarian, 13200 nM. Further, the TGI turned out to be 1250 nM in the test on SK-MEL-2 melanoma, 353 nM in the test with SK-MEL-5 melanoma, 1890 nM in the test on SK-OV-3 ovarian and 1710 nM in the test with UO-31 renal.
Regarding `CNCCNc1c2c(c(NCCNC)c3[nH]ccc13)C(=O)c1ccccc1C2=O`, the GI50 in the test with A498 renal is 2140 nM; in the test with DU-145 prostate, 526 nM; in the test on MDA-MB-435, 255 nM; in the test on MOLT-4 leukemia it was less than 26.1 nM; in the test on NCI-H23 lung, 197 nM; in the test on OVCAR-4 ovarian, 1660 nM. Also, the GI50 is 581 nM with SK-MEL-2 melanoma, 421 nM in the test on SK-MEL-5 melanoma, 5670 nM in the test with SK-OV-3 ovarian and 201 nM in the test on UO-31 renal. Moreover, the TGI came to 4270 nM in the test on A498 renal; 1310 nM in the test with DU-145 prostate; 1470 nM in the test with MDA-MB-435; 558 nM in the test with NCI-H23 lung; 5110 nM with OVCAR-4 ovarian; 2550 nM with SK-MEL-2 melanoma. Also, the TGI in the test on SK-MEL-5 melanoma turned out to be 901 nM; in the test on SK-OV-3 ovarian it was 13300 nM; with UO-31 renal it was 818 nM.

For the origin of these results see PubChem BioAssay (NCI).
